Data as given in patent US11440880B2, “Thalidomide analogs and methods of use” (The USA, as represented by the Secretary, Department of …, priority 2015, dated 2022).

What was measured:
[1] = test system: mpo:GFP zebrafish embryos (neutrophil migration to the wound site); assay: mpo:GFP zebrafish fin-clip neutrophil migration (inflammation) assay; type: in vivo; parameters: mpo:GFP inflammation n (survived/tested): concentration or dose not given beside the values; details: for minimal effective concentration: Danio rerio, Neutrophil, lowest concentration producing an effect, compounds not producing an effect shown at the highest evaluated concentration; for mpo:GFP inflammation n (survived/tested): embryos survived/tested at the concentration given
Description: (§1) Zebrafish embryology: The use of zebrafish embryo (Danio rerio) bioassays as a preclinical model in the classification of novel compounds has increased in recent years due to several factors including; low cost, ease of maintenance, speed of embryonic development, transparency of the embryos and genetic conservation between zebrafish and humans (Howe et al., Nature 2013; 496:498; Therapontos et al., PNAS 2009, 106:8573; Mahony et al., PNAS 2013, 110:12703; Beedie et al., Oncotarget 2016, 7(22):33237; Beedie et al., Mol. Cancer Ther. 2015, 14(10):2228). Two established zebrafish reporter lines were used—the fli1:EGFP line, where the fli1 promoter drives expression of enhanced green fluorescent protein within the developing vasculature (Lawson et al., 2002), and the Tg(mpo::EGFP) line (also known as mpo:GFP), which expresses green fluorescent protein via the neutrophil specific myeloperoxidase promoter (Renshaw et al., Blood 2006, 108:3976). The use of these zebrafish transgenic reporter lines allows for the identification of potential anti-angiogenic and anti-inflammatory compounds respectively, and both have been used previously to successfully classify the action of thalidomide analogs (Therapontos et al., 2009; Mahony et al., 2013; Beedie et al., Oncotarget 2016, 7(22):33237; Beedie et al., Mol. Cancer Ther. 2015, 14(10):2228). Zebrafish embryos were treated with analogs as previously described (Mahony et al., 2013). Briefly, fli1:EGFP embryos were collected and embryos were allowed to develop for 24 hours. Embryos were dechorionated manually and exposed to test compounds or vehicle control for a further 24 hours, imaged and analyzed for intersegmental vessel (ISV) growth. At 24 hours post fertilisation (hpf) the ISVs were ideal to study to visualize and analyze the actions of compounds on angiogenesis. At this time point ISVs were rapidly forming beneath the developing head, over the body and had yet to form in the tail (Lawson and Weinstein, Developmental Biology 2002, 248:307; Therapontos and Vargesson, Developmental Dynamics 2010, 239:2761). Additionally, these sprouts would go on to form the bilateral dorsal longitudinal anastomotic vessels. By treating before this fusion and formation occurs, the effect of each compound on the individual vessels as well as overall patterning structural integrity (Isogai et al., Development 2003, 130:5281) could be determined. Tg(mpo::EGFP) were tail fin clipped as previously detailed (Renshaw et al., 2006; Mahony et al., 2013; Beedie et al., Oncotarget 2016, 7(22):33237; Beedie et al., Mol. Cancer Ther. 2015, 14(10):2228) and incubated with test compounds or vehicle control at 72 hours post fertilization. Fish were imaged at 24 hours and the number of migratory neutrophils present at the wound site were counted. Compounds inducing an at least 50% reduction of neutrophils to the wound site were considered to have anti-inflammatory properties in this system. All larvae were assessed for viability and morphological integrity.
To assess the immunomodulatory effects of the thalidomide analogs, the mpo:gfp transgenic zebrafish line (Renshaw et al., Blood 2006, 108:3976-3978) was utilized because it is an accepted model of inflammation, and can be used to test the effect of anti-inflammatory agents. These embryos express GFP-tagged myeloperoxidase, where green fluorescence marks the neutrophil cells involved in the inflammatory response process, for example following injury, from 72 hours post fertilization (Renshaw et al., 2006; Mahony et al., 2013; Beedie et al., Oncotarget 2016, 7(22):33237). At 72 hpf the dorsal third of the tail fin was removed and the embryos were immersed in the desired compound or vehicle (FIGS. 5A-5C). The embryos were examined for the effect on the inflammatory response quantified as an induction and migration of neutrophils to the wound site 24 hours later.

[2] = test system: fli1:EGFP zebrafish embryos (intersegmental vessel growth); assay: fli1:EGFP zebrafish embryo angiogenesis assay; type: in vivo; parameters: fli1:EGFP angiogenesis n (survived/tested): concentration or dose not given beside the values; details: for minimal effective concentration: Danio rerio, lowest concentration producing an effect, compounds not producing an effect shown at the highest evaluated concentration; for fli1:EGFP angiogenesis n (survived/tested): embryos alive after 24 hours of exposure
Description: as §1
To determine if the thalidomide analogs had any effect on angiogenesis, fli1:EGFP embryos (Lawson and Weinstein, Developmental Biology 2002, 248:307-318) were exposed to either vehicle or a compound of interest, over a range of concentrations and over a range of time points starting at 24 hpf. Images were obtained at three time points over 24 hours after exposure to the compounds. The best concentration and time point were selected. CPS49, a compound that is chemically and structurally similar to thalidomide breakdown products, and is tetrafluorinated (which adds stability and bioactivity to the compound) and that causes severe limb defects in chicken embryos, was used as a positive control. The embryos were imaged at 48 hpf (FIGS. 3A3L) and analyzed for both vessel formation and the extent of growth of the vasculature. […]

RAW 264.7 cells = assay: Cell viability (CellTiter 96 AQueous One) of LPS-challenged RAW 264.7 cells; type: cell-based, mouse; parameters: key: NS=not significant; a “+” sign=anti-inflammatory or increased cell numbers; a “−” sign=cell toxicity or pro-inflammatory
Procedure: The CellTiter 96® AQueous One Solution Cell Proliferation Assay (Promega, Madison, Wis.) is routinely used as an assay of cell proliferation, and was used according to the manufacturer's recommendations. Changes in cellular health status are determined by use of indirect measures related to the formation of a colored tetrazolium dye product that can be measured spectrophotometrically at 490 nm λ. […] Optical densities (expressed as O.D.s) were measured after various incubations.
(§2) RAW 264.7 cells obtained from ATCC (Manassas, Va., USA) were grown in DMEM media supplemented with 10% FCS, penicillin 100 μg/ml and streptomycin 100 μg/ml, and maintained at 37° C. and 5% CO2. Cells were seeded in 24 well plates and, 24 hours later, were utilized in studies. One hour prior to the initiation of any study, the seeding media was replaced with fresh media (1 mL), and the cells were allowed to equilibrate at 37° C. and 5% CO2.
(§3) RAW 264.7 cells were challenged with LPS (Sigma, St Louis, Mo.: serotype 055:B5) from at a final concentration of 30 or 60 ng/mL. This concentration of LPS in RAW 264.7 cells induces a sub-maximal rise in both TNF-alpha and nitrite levels without a loss in cellular viability. This sub-maximal rise is useful for assessing whether the addition of an experimental drug can either lower or further raise levels of TNF-α and nitrite. Twenty four hours following the addition of LPS, conditioned media was harvested and analyzed for quantification of secreted TNF-α protein and nitrite levels. Fresh media was replaced into the wells and cell viability was then assessed.
(§4) Thalidomide and analogs were prepared in tissue culture grade DMSO (Sigma). RAW 264.7 cells were pretreated with thalidomide, analogues or vehicle one hour prior to a challenge with LPS. The effects of various concentrations of thalidomide analogues were assessed. All compounds were synthesized to a chemical purity of >99.5%, as assessed by chemical characterization by a combination of 1H NMR, 13C NMR and GC/MS analyses (Bruker AC-300 spectrometer, together with elemental analyses (Atlantic Microlab, Inc., Norcross, Ga.).

TNF-α protein = TNF-α protein level (ELISA) in LPS-challenged RAW 264.7 cells; type: cell-based, mouse; parameters: key: NS=not significant; a “+” sign=anti-inflammatory or increased cell numbers; a “−” sign=cell toxicity or pro-inflammatory; details: LPS 30 or 60 ng/mL, 24 h
Procedure: Nitrite levels in the culture media were measured by use of the Griess Reagent System (Promega, Madison, Wis.), following the manufacturer's protocol. The O.D. of unknown samples was read at 520 nm λ, compared to a sodium nitrite standard curve (1.5 μM to 100 μM) and nitrite measured media concentrations expressed as μM units. As the lowest nitrite concentration on the Griess Reagent System standard curve was 1.5 μM, this was chosen as the effective cutoff for defining measurable nitrite concentrations. TNF-α protein levels were measured by use of an ELISA specific for mouse TNF-α protein (BioLegend, San Diego, Calif.) and are expressed as a % change from their appropriate control or as pg/ml.
as §2, §3, §4

Compound | minimal effective concentration [1] | mpo:GFP inflammation n (survived/tested) [1] | minimal effective concentration [2] | fli1:EGFP angiogenesis n (survived/tested) [2] | further results
O=C1NC(=S)CCC1N1C(=O)c2ccccc2C1=S (stereo not drawn) [Compound 2, 2,3-dihydro-2-(2-oxo-6-thioxo-3-piperidinyl)-3-thioxo-1H-isoindol-1-one] | 10 µg/mL | 26/30 | 10 µg/mL | 21/24 | anti-inflammatory activity (inhibition of neutrophil migration) ([1]; in words): significant anti-inflammatory action
O=C1NC(=S)CCC1N1C(=O)c2cccc(O)c2C1=O (stereo not drawn) [Compound 14] | 10 µg/mL | 14/24 | 10 µg/mL | 7/23 | 
O=C1NC(=S)CCC1N1C(=O)c2ccc(O)cc2C1=O (stereo not drawn) [Compound 17] | 10 µg/mL | 5/5 | 15 µg/mL | 26/50 | 
CC(=O)Oc1ccc2c(c1)C(=O)N(C1CCC(=O)NC1=O)C2=O (stereo not drawn) [Compound 18] | 50 µg/mL | 14/14 | 50 µg/mL | 24/43 | 
CC(=O)Oc1ccc2c(c1)C(=O)N(C1CCC(=S)NC1=O)C2=O (stereo not drawn) [Compound 19] | 1 µg/mL | 5/12 | 1 µg/mL | 13/51 | 
O=C1CCC(N2C(=O)c3ccc(OCc4ccccc4)cc3C2=O)C(=O)N1 (stereo not drawn) [Compound 20] | 10 µg/mL | 8/14 | 10 µg/mL | 51/79 | 
Nc1ccc2c(=O)n(C3CCC(=O)NC3=O)c(=O)oc2c1 (stereo not drawn) [Compound 24] | 50 µg/mL | 6/6 | 50 µg/mL | 13/25 | 
Nc1cccc2c1CN(C1CCC(=S)NC1=O)C2=O (stereo not drawn) [Compound 30] | 10 µg/mL | 10/10 | 10 µg/mL | 4/8 | 
Nc1cccc2c1CN(C1CCC(=S)NC1=O)C2=S (stereo not drawn) [Compound 32] | 10 µg/mL | 6/15 | 100 µg/mL | 21/25 | Viability (RAW 264.7 cells; 3 μM): NS; Viability (RAW 264.7 cells; 10 μM): NS; Viability (RAW 264.7 cells; 30 μM): NS; TNF-α (TNF-α protein; 3 μM): +; TNF-α (TNF-α protein; 10 μM): +; TNF-α (TNF-α protein; 30 μM): +
O=C1CCC(N2Cc3ccc([N+](=O)[O-])cc3C2=O)C(=O)N1 (stereo not drawn) [Compound 33] | 10 µg/mL | 4/15 | 100 µg/mL | 15/21 | 
Nc1ccc2c(c1)C(=O)N(C1CCC(=O)NC1=O)C2 (stereo not drawn) [Compound 34] | 100 µg/mL | 7/9 | 100 µg/mL | 13/20 | 
CC(C)Nc1ccc2c(c1)C(=O)N(C1CC=CNC1=O)C2 (stereo not drawn) [Compound 46, 6-Isopropylamino-2-(3,4-dihydro-2-pyridone-3-yl)phthalimidine] | 10 µg/mL | 24/50 | 10 µg/mL | 14/30 | 
O=C1CCC(N2Cc3ccccc3C2=O)C(=O)N1CN1C(=S)c2ccccc2C1=S (stereo not drawn) [Compound 51] | 1 µg/mL | 4/11 | 200 µg/mL | 7/25 | Viability (RAW 264.7 cells; 1 μM): NS; Viability (RAW 264.7 cells; 10 μM): NS; Viability (RAW 264.7 cells; 30 μM): −; concentration at which anti-angiogenic activity was shown ([2]; exposure from 24 hpf, imaged at 48 hpf): 200 µg/mL; TNF-α (TNF-α protein; 1 μM): +; TNF-α (TNF-α protein; 10 μM): +; TNF-α (TNF-α protein; 30 μM): +
N=C1N/C(=N\C2CCC(=O)NC2=O)c2ccccc21 (stereo not drawn) [Compound 55] | 200 µg/mL | 6/11 | 100 µg/mL | 6/10 | 
N=C1c2ccccc2C(=O)N1C1CCC(=O)NC1=O (stereo not drawn) [Compound 56] | 10 µg/mL | 7/8 | 10 µg/mL | 9/19 | 
O=C1c2cccc([N+](=O)[O-])c2C(=O)N1c1nc2ccc(C(F)(F)F)cc2s1 [Compound 60] | 1 µg/mL | 5/15 | 10 µg/mL | 3/10 | 
